Reference: PubChem BioAssay AID328 (DTP/NCI, 2004)
Values joined by “and” are separate entries in the source; they are usually repeats but may differ in a detail not shown here. Equal entries are not always repeated. Toxic doses and inconclusive results are not listed. How the source made its calls: active means survival T/C of 150% or more; inactive means T/C below 125% in these data.

System: BDF1 mice, P388 leukemia ip, median survival T/C
Test: NCI In Vivo Anticancer Drug Screen. Data for tumor model P388 Leukemia (intraperitoneal) in B6D2F1 (BDF1) mice
Conditions: endpoint: median survival time, higher = longer survival
Summary of the method: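 Read-out is survival of treated animals expressed relative to the vehicle group, as a T/C ratio.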

[1] = dose: 50.0 mg/kg/injection, schedule: Q01DX009 (ip), vehicle: saline with Tween-80
[2] = dose: 100.0 mg/kg/injection, schedule: Q01DX009 (ip), vehicle: saline
[3] = dose: 100.0 mg/kg/injection, schedule: Q04DX003 (ip), vehicle: saline
[4] = dose: 200.0 mg/kg/injection, schedule: Q01DX009 (ip), vehicle: saline
[5] = dose: 200.0 mg/kg/injection, schedule: Q04DX003 (ip), vehicle: saline
[6] = dose: 400.0 mg/kg/injection, schedule: Q04DX003 (ip), vehicle: saline
[7] = dose: 100.0 mg/kg/injection, schedule: Q04DX003 (ip), vehicle: saline with Tween-80
[8] = dose: 200.0 mg/kg/injection, schedule: Q04DX003 (ip), vehicle: saline with Tween-80
[9] = dose: 400.0 mg/kg/injection, schedule: Q04DX003 (ip), vehicle: saline with Tween-80
[10] = dose: 100.0 mg/kg/injection, schedule: Q01DX009 (ip), vehicle: Klucel (hydroxypropylcellulose) (HPC)
[11] = dose: 100.0 mg/kg/injection, schedule: Q04DX003 (ip), vehicle: Klucel (hydroxypropylcellulose) (HPC)
[12] = dose: 200.0 mg/kg/injection, schedule: Q04DX003 (ip), vehicle: Klucel (hydroxypropylcellulose) (HPC)
[13] = dose: 400.0 mg/kg/injection, schedule: Q04DX003 (ip), vehicle: Klucel (hydroxypropylcellulose) (HPC)
[14] = dose: 200.0 mg/kg/injection, schedule: Q01DX009 (ip), vehicle: Klucel (hydroxypropylcellulose) (HPC)
[15] = dose: 100.0 mg/kg/injection, schedule: Q04DX003 (ip), vehicle: other

Measured: T/C

Cc1ccc(C(=O)N=[N+]=[N-])o1
inactive: [1] 108 % of control

CC(Oc1ccccc1-c1ccccc1)C(=O)N(C)C (centres undefined)
inactive: dose: 12.5 mg/kg/injection, schedule: Q01DX009 (ip), vehicle: saline with Tween-80 100 % of control | [1] 121 % of control and 124 % of control | dose: 100.0 mg/kg/injection, schedule: Q01DX009 (ip), vehicle: saline with Tween-80 97 % of control and 105 % of control | dose: 200.0 mg/kg/injection, schedule: Q01DX009 (ip), vehicle: saline with Tween-80 112 % of control

CC(=O)CC(C)=O.CC(=O)CC(C)=O.Cn1ccnc1.Cn1ccnc1.[Ni]
inactive: dose: 12.5 mg/kg/injection, schedule: Q04DX002 (ip), vehicle: saline 103 % of control | dose: 25.0 mg/kg/injection, schedule: Q04DX002 (ip), vehicle: saline 107 % of control | dose: 50.0 mg/kg/injection, schedule: Q04DX002 (ip), vehicle: saline 119 % of control

C1=CC2CCC(C1)C21OCCO1 (centres undefined)
inactive: [2] 90 % of control | [3] 95 % of control | [4] 109 % of control | [5] 104 % of control | dose: 400.0 mg/kg/injection, schedule: Q01DX009 (ip), vehicle: saline 109 % of control | [6] 108 % of control

CCOC(=O)/C=C(\C)SC1=CC(=O)C=CC1=O
inactive: dose: 100.0 mg/kg/injection, schedule: Q01DX001 (ip), vehicle: saline with Tween-80 106 % of control | dose: 200.0 mg/kg/injection, schedule: Q01DX001 (ip), vehicle: saline with Tween-80 100 % of control

COc1cc(Br)cc(C(=O)O)c1OC
inactive: dose: 50.0 mg/kg/injection, schedule: Q01DX009 (ip), vehicle: distilled water + Tween-80 96 % of control | dose: 100.0 mg/kg/injection, schedule: Q01DX009 (ip), vehicle: distilled water + Tween-80 88 % of control

CN(C)C(=S)S
inactive: dose: 50.0 mg/kg/injection, schedule: Q04DX003 (ip), vehicle: saline 103 % of control | [3] 103 % of control | [5] 105 % of control | [6] 117 % of control

C=CCN(CC=C)CCNc1nc(C(Cl)(Cl)Cl)nc2ccc(Cl)cc12
inactive: [7] 100 % of control | [8] 112 % of control | [9] 116 % of control

c1ccc(OP2OCCO2)cc1
inactive: dose: 50.0 mg/kg/injection, schedule: Q01DX009 (ip), vehicle: saline 104 % of control | [2] 104 % of control | [3] 87 % of control | [4] 95 % of control | [5] 112 % of control

CCOc1ccc(N2CC(=O)N3CCCN3C(=O)C2)cc1
inactive: dose: 100.0 mg/kg/injection, schedule: Q01DX005 (ip), vehicle: saline with Tween-80 88 % of control

CCCCCCCCCCCCCCCCCCOC(=O)Cc1ccc(N(CCCl)CCCl)cc1
inactive: dose: 50.0 mg/kg/injection, schedule: Q04DX002 (ip), vehicle: Klucel (hydroxypropylcellulose) (HPC) 123 % of control | dose: 100.0 mg/kg/injection, schedule: Q04DX002 (ip), vehicle: Klucel (hydroxypropylcellulose) (HPC) 104 % of control | [11] 113 % of control | dose: 180.0 mg/kg/injection, schedule: Q04DX003 (ip), vehicle: saline with Tween-80 100 % of control | [12] 118 % of control | dose: 400.0 mg/kg/injection, schedule: Q01DX009 (ip), vehicle: Klucel (hydroxypropylcellulose) (HPC) 123 % of control
active: dose: 66.0 mg/kg/injection, schedule: Q01DX007 (ip), vehicle: Klucel (hydroxypropylcellulose) (HPC) 153 % of control | dose: 100.0 mg/kg/injection, schedule: Q01DX007 (ip), vehicle: Klucel (hydroxypropylcellulose) (HPC) 165 % of control | [10] 150 % of control | dose: 150.0 mg/kg/injection, schedule: Q01DX007 (ip), vehicle: Klucel (hydroxypropylcellulose) (HPC) 173 % of control | dose: 400.0 mg/kg/injection, schedule: Q04DX002 (ip), vehicle: Klucel (hydroxypropylcellulose) (HPC) 180 % of control | [13] 250 % of control and 159 % of control | [9] 166 % of control | dose: 600.0 mg/kg/injection, schedule: Q04DX003 (ip), vehicle: Klucel (hydroxypropylcellulose) (HPC) 208 % of control | dose: 600.0 mg/kg/injection, schedule: Q04DX003 (ip), vehicle: saline with Tween-80 150 % of control

CN(C)C(=S)NN
inactive: dose: 0.25 mg/kg/injection, schedule: Q01DX009 (ip), vehicle: saline with Tween-80 90 % of control | dose: 0.5 mg/kg/injection, schedule: Q01DX009 (ip), vehicle: saline with Tween-80 90 % of control | dose: 0.78 mg/kg/injection, schedule: Q04DX003 (ip), vehicle: saline with Tween-80 100 % of control | dose: 1.0 mg/kg/injection, schedule: Q01DX009 (ip), vehicle: saline with Tween-80 95 % of control | dose: 1.56 mg/kg/injection, schedule: Q04DX003 (ip), vehicle: saline with Tween-80 105 % of control | dose: 3.12 mg/kg/injection, schedule: Q04DX003 (ip), vehicle: saline with Tween-80 95 % of control and 105 % of control

O=[N+]([O-])c1ccc(C2OC2c2ccccc2)cc1 (centres undefined)
inactive: dose: 50.0 mg/kg/injection, schedule: Q01DX009 (ip), vehicle: Klucel (hydroxypropylcellulose) (HPC) 122 % of control | [10] 111 % of control | [11] 95 % of control and 120 % of control | [14] 111 % of control | [12] 110 % of control | [13] 91 % of control and 110 % of control

[Co].[N-]=C=S.[N-]=C=S.[N-]=C=S.[NH2-].[NH2-].[NH2-]
inactive: dose: 12.5 mg/kg/injection, schedule: Q01DX005 (ip), vehicle: saline with Tween-80 107 % of control | dose: 25.0 mg/kg/injection, schedule: Q01DX005 (ip), vehicle: saline with Tween-80 110 % of control | dose: 50.0 mg/kg/injection, schedule: Q01DX005 (ip), vehicle: saline with Tween-80 117 % of control | dose: 100.0 mg/kg/injection, schedule: Q01DX001 (ip), vehicle: suspension in saline 98 % of control | dose: 200.0 mg/kg/injection, schedule: Q01DX001 (ip), vehicle: suspension in saline 120 % of control | dose: 400.0 mg/kg/injection, schedule: Q01DX001 (ip), vehicle: suspension in saline 98 % of control

C=C1C(=O)OC2C=C(C)CC3C=C(CCC=C(C)CCC12)C(=O)O3 (centres undefined)
inactive: dose: 10.0 mg/kg/injection, schedule: Q01DX009 (ip), vehicle: saline 88 % of control | dose: 30.0 mg/kg/injection, schedule: Q01DX009 (ip), vehicle: saline 105 % of control | dose: 40.0 mg/kg/injection, schedule: Q01DX009 (ip), vehicle: saline 94 % of control | dose: 60.0 mg/kg/injection, schedule: Q01DX009 (ip), vehicle: saline 120 % of control | dose: 120.0 mg/kg/injection, schedule: Q01DX009 (ip), vehicle: saline 112 % of control

CCN(CC)c1ccc(NC(=O)Nc2ccccc2OC)cc1
inactive: [7] 95 % of control | [8] 100 % of control | [9] 100 % of control

O=C(CC(O)(C(F)(F)F)C(F)(F)F)c1ccc(F)cc1
inactive: [15] 120 % of control

COc1ccc(OC)c(NC(=O)Sc2c(Cl)c(Cl)nc(Cl)c2Cl)c1
inactive: dose: 25.0 mg/kg/injection, schedule: Q01DX009 (ip), vehicle: Klucel (hydroxypropylcellulose) (HPC) 123 % of control | [10] 124 % of control | [14] 123 % of control

Cc1ccc(CN(CC(=O)O)S(C)(=O)=O)cc1
inactive: [15] 106 % of control | dose: 200.0 mg/kg/injection, schedule: Q04DX003 (ip), vehicle: other 109 % of control | dose: 400.0 mg/kg/injection, schedule: Q04DX003 (ip), vehicle: other 94 % of control
